Where two headings read alike, the source gives them in different places.
How the values were obtained:
[1] = system: serum triglyceride; experiment: Serum triglyceride levels of male mice (Hycel commercial kits); assay type: in vivo, male CF1 mice; conditions: Mus musculus, ip, 336 h
Protocol: (§1) For hypolipidemic activity, the compounds were tested at 20 mg/kg/day administered I.P. to male CF1 mice (~30 g). On days 9 and 16 blood was collected by tail-vein bleeding. Serum cholesterol was determined by the Liebermann-Burchard reaction. Serum triglyceride levels were determined using the Hycel commercial kits on a separate group of mice, which were bled on day 14.

[2] = biological target: T1, Acetyl-CoA Synthetase (Mus musculus, UniProt Q9QXG4); experiment: In vitro acetyl coenzyme A synthetase activity (method of Goodridge); assay type: biochemical, mice; conditions: for in vitro AcCoA synthetase: Table 3, N = 6, control 10.8 mg/g wet tissue; for Acetyl-CoA Synthetase: Table 2, N = 6, x ± S.D., control 28.5 mg acetyl CoA formed/gm wet tissue/30 min.
T1 construct: gm wet tissue/30 min; from tissue

[3] = system: serum cholesterol; experiment: Serum cholesterol of male CF1 mice (Liebermann-Burchard reaction); assay type: in vivo; conditions: Mus musculus, ip
Protocol: as §1

[4] = biological target: T2, Citrate Lyase (Mus musculus, UniProt Q91V92); experiment: In vitro effect on citrate lyase; assay type: biochemical; conditions: Table 2, N = 6, x ± S.D., control 30.5 mg of citrate hydrolyzed/gm wet tissue/30 min.
T2 construct: 30.5 mg of citrate hydrolyzed/gm wet tissue/30 min; from tissue
T2 sequence (Q91V92 1-1091): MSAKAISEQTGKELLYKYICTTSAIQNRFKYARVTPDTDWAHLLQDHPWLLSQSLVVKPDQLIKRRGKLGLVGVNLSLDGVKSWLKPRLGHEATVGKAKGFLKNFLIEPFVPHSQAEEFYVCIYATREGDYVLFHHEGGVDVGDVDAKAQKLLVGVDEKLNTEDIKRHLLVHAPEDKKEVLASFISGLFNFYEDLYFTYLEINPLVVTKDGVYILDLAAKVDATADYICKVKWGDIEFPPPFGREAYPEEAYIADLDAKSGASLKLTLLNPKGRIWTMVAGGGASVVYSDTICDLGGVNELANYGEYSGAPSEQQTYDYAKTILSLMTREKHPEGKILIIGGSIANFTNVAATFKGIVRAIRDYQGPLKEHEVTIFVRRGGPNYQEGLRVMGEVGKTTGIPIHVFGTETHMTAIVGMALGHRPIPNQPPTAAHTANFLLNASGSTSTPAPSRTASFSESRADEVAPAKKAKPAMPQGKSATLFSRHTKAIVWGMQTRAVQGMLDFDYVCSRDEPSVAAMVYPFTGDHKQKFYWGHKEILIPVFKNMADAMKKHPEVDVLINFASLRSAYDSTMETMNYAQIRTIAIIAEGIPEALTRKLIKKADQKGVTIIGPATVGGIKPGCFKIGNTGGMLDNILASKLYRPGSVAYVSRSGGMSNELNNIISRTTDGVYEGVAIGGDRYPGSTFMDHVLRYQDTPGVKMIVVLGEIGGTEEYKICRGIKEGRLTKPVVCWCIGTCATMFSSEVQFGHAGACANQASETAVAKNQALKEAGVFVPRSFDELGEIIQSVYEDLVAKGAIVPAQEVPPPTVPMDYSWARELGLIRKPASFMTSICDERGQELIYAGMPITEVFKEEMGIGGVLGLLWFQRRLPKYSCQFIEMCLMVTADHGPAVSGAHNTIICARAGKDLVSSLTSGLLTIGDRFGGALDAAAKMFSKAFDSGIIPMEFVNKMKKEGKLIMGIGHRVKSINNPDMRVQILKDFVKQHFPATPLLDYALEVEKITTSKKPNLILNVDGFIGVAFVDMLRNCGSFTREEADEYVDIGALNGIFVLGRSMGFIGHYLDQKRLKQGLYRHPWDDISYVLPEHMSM

[5] = biological target: T3, Acetyl-CoA Carboxylase (Mus musculus, UniProt Q5SWU9); experiment: In vitro acetyl coenzyme A carboxylase activity (method of Greenspan and Lowenstein); assay type: biochemical; conditions: Table 2, N = 6, x ± S.D., control 32,010 dpm/gm wet tissue/30 min.
T3 construct: 32,010 dpm/gm wet tissue/30 min; from tissue

[6] = biological target: T4, Fatty Acid Synthetase (Mus musculus, UniProt P19096); experiment: In vitro effect on fatty acid synthetase; assay type: biochemical; conditions: Table 2, N = 6, x ± S.D.
T4 construct: gm wet tissue/30 min; from tissue

[7] = Table 3, mice, N = 6, control 138 mg %, read-out: serum triglycerides
[8] = 216 h, Table 3, mice, N = 6, 9th day, control 115 mg %, read-out: serum cholesterol, 9th day
[9] = 384 h, Table 3, mice, N = 6, 16th day, control 118 mg %, read-out: serum cholesterol, 16th day
[10] = Table 1, 20 mg/kg/day I.P., male mice, N = 6, 14th day, control value 137 mg %, read-out: Serum Triglyceride, 14th day
[11] = 216 h, Table 1, 20 mg/kg/day I.P., male CF1 mice, N = 6, 9th day, control value 118 mg %, read-out: Serum Cholesterol, 9th day
[12] = 384 h, Table 1, 20 mg/kg/day I.P., male CF1 mice, N = 6, 16th day, control value 122 mg %, read-out: Serum Cholesterol, 16th day

T4 sequence (P19096 whole entry): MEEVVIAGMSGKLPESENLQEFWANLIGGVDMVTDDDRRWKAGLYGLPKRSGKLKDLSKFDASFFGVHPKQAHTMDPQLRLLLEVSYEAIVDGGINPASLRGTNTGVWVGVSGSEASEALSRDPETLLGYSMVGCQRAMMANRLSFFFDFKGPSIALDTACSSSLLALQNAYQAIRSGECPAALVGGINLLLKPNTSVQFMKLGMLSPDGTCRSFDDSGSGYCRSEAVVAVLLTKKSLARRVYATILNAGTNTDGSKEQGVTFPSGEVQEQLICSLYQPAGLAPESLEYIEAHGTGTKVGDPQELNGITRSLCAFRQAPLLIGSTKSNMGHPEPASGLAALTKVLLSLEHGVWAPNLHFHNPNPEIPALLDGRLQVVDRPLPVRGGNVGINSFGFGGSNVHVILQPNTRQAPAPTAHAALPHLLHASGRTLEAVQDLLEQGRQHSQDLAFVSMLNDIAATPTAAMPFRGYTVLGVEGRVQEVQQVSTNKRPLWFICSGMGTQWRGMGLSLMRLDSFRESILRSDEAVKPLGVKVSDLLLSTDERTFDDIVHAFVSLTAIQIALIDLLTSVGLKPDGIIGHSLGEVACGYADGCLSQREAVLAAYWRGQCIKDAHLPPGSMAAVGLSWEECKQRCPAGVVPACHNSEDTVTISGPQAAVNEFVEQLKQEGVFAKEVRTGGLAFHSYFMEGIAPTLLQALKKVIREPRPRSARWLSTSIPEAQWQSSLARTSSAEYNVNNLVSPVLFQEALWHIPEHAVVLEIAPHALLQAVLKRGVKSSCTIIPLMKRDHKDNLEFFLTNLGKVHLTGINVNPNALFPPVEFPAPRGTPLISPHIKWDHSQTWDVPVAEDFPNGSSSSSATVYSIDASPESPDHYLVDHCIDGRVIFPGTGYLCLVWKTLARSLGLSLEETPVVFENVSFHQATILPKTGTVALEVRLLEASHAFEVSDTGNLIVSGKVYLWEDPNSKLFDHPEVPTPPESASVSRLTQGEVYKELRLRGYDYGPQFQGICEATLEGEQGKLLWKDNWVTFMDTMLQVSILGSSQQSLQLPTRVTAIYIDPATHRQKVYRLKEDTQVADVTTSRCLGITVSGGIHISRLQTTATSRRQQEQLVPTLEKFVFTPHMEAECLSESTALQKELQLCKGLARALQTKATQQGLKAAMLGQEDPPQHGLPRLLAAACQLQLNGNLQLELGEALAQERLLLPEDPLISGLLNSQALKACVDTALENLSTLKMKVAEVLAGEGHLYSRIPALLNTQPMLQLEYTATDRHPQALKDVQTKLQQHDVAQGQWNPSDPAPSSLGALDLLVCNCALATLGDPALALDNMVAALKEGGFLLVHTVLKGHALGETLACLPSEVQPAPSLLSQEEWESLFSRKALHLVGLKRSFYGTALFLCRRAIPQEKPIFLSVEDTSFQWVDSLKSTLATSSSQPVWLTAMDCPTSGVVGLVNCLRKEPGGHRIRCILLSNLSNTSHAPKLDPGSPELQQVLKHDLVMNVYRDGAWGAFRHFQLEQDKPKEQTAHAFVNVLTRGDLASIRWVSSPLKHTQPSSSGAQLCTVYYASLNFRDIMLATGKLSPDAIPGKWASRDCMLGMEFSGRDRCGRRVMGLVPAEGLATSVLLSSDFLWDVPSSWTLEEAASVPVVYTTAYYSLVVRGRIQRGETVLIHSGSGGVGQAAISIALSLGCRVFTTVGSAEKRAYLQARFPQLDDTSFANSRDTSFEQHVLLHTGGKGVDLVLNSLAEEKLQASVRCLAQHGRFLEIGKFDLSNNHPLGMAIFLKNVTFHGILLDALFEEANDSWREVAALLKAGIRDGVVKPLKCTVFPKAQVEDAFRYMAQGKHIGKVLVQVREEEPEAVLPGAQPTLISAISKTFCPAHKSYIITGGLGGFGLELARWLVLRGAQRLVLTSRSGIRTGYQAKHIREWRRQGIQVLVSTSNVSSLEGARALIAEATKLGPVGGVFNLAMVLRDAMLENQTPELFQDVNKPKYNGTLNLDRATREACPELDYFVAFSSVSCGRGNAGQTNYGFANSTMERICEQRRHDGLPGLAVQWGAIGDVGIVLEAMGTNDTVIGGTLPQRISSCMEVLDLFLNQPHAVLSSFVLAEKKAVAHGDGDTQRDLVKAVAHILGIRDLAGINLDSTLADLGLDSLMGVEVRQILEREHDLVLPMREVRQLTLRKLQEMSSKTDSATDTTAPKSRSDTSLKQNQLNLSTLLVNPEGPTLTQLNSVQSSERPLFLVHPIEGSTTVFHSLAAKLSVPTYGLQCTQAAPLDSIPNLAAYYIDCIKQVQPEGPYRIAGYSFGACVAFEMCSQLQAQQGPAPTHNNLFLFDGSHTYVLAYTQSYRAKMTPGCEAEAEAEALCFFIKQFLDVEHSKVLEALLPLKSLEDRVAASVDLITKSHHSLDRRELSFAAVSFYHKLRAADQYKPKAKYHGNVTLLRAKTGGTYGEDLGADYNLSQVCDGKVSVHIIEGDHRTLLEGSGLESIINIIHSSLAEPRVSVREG
T1 sequence (Q9QXG4 whole entry): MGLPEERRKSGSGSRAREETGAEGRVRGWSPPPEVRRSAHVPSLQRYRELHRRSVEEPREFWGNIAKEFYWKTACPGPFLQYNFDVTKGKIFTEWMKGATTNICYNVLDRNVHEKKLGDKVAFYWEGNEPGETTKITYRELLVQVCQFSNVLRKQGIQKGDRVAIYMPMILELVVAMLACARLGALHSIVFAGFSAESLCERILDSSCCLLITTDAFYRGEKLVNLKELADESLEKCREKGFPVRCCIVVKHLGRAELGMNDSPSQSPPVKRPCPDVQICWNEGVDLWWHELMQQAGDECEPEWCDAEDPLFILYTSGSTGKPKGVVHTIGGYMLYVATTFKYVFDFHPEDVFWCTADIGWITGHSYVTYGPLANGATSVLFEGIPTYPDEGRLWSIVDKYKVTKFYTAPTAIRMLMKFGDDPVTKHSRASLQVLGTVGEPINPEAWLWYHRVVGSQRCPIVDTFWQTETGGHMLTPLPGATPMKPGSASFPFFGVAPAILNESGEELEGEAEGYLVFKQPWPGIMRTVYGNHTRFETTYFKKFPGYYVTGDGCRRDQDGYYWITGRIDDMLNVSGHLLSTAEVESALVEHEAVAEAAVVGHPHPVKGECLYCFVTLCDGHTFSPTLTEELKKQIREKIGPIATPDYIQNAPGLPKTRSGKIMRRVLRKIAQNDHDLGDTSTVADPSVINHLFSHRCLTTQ

in vitro AcCoA synthetase [2]	Citrate Lyase [4]	Acetyl-CoA Synthetase [2]	Acetyl-CoA Carboxylase [5]	Fatty Acid Synthetase [6]	Compound	response vs control in vivo at 20 mg/kg/day [1, 7]	response vs control in vivo at 20 mg/kg/day [3, 8]	response vs control in vivo at 20 mg/kg/day [3, 9]	response vs control in vivo at 20 mg/kg/day [1, 10]	response vs control in vivo at 20 mg/kg/day [3, 11]	response vs control in vivo at 20 mg/kg/day [3, 12]
62 ± 3 % Control	–	–	–	–	CC(=O)CCCN1C(=O)c2ccccc2C1=O [1-N--phthalimidopentan-4-one]	59 ± 13%	71 ± 6%	63 ± 5%	–	–	–
53 ± 12 % Control	34 ± 4 % Control	53 ± 12 % Control	17 ± 3 % Control	109 ± 7 % Control	CC(=O)CCN1C(=O)c2ccccc2C1=O [1-N--Phthalimidobutan-3-one]	58 ± 7%	67 ± 11%	63 ± 7%	58 ± 7%	67 ± 11%	63 ± 7%
–	47 ± 8 % Control	74 ± 9 % Control	12 ± 3 % Control	104 ± 7 % Control	CC(=O)CCN1C(=O)c2ccccc2S1(=O)=O [1-N--(o-Benzosulfimido)butan-3-one]	–	–	–	51 ± 7%	60 ± 8%	62 ± 6%
82 ± 7 % Control	72 ± 9 % Control	44 ± 11 % Control	76 ± 3 % Control	75 ± 10 % Control	CCCCN1C(=O)c2ccccc2C1=O [N--n-Butylphthalimide]	82 ± 16%	72 ± 10%	54 ± 6%	82 ± 10%	72 ± 11%	54 ± 6%
66 ± 12 % Control	–	–	–	–	CN1C(=O)c2ccccc2C1=O [N--methylphthalimide]	68 ± 8%	74 ± 4%	74 ± 8%	–	–	–
68 ± 6 % Control	–	–	–	–	CCCCCN1C(=O)c2ccccc2C1=O [N--n-pentylphthalimide]	75 ± 16%	76 ± 5%	58 ± 3%	–	–	–
64 ± 12 % Control	–	–	–	–	O=C(O)CCCN1C(=O)c2ccccc2C1=O [4-N--phthalimidobutyric acid]	59 ± 14%	80 ± 7%	68 ± 6%	–	–	–
78 ± 6 % Control	–	–	–	–	O=C1NC(=O)c2ccccc21.[K] [potassium phthalimide]	88 ± 4%	63 ± 6%	78 ± 3%	–	–	–
–	66 ± 6 % Control	63 ± 9 % Control	106 ± 6 % Control	86 ± 8 % Control	O=C1NC(=O)c2cccc3cccc1c23 [1,8-Naphthalimide]	–	–	–	87 ± 12%	81 ± 6%	61 ± 7%
68 ± 6 % Control	–	–	–	–	CC(=O)CCCCN1C(=O)c2ccccc2C1=O [1-N--phthalimidohexan-5-one]	77 ± 5%	65 ± 9%	65 ± 7%	–	–	–
67 ± 3 % Control	–	–	–	–	CCCN1C(=O)c2ccccc2C1=O [N--n-propylphthalimide]	81 ± 9%	96 ± 4%	74 ± 5%	–	–	–
81 ± 6 % Control	–	–	–	–	CC(=O)OCCN1C(=O)c2ccccc2C1=O [N--phthalimidoethyl acetate]	82 ± 7%	93 ± 13%	95 ± 1%	–	–	–
71 ± 12 % Control	–	–	–	–	CCCCCCN1C(=O)c2ccccc2C1=O [N--n-hexylphthalimide]	84 ± 8%	96 ± 5%	66 ± 4%	–	–	–
76 ± 8 % Control	–	–	–	–	O=C(O)CCCCN1C(=O)c2ccccc2C1=O [5-N--phthalimidovaleric]	54 ± 5%	83 ± 9%	77 ± 4%	–	–	–
76 ± 7 % Control	–	–	–	–	CCCCCCCCN1C(=O)c2ccccc2C1=O [N--n-octylphthalimide]	77 ± 4%	101 ± 7%	82 ± 3%	–	–	–
71 ± 5 % Control	–	–	–	–	CCCCCCCN1C(=O)c2ccccc2C1=O [N--n-heptylphthalimide]	84 ± 6%	99 ± 7%	72 ± 4%	–	–	–
62 ± 10 % Control	–	–	–	–	CC(=O)OCN1C(=O)c2ccccc2C1=O [N--phthalimidomethyl acetate]	57 ± 25%	61 ± 9%	62 ± 4%	–	–	–
84 ± 2 % Control	–	–	–	–	CC(=O)OCCCN1C(=O)c2ccccc2C1=O [N--phthalimidopropan-1-ol acetate]	89 ± 9%	102 ± 4%	66 ± 2%	–	–	–
72 ± 12 % Control	–	–	–	–	O=C(O)CN1C(=O)c2ccccc2C1=O [2-N--phthalimidoacetic acid]	72 ± 9%	76 ± 7%	68 ± 7%	–	–	–
59 ± 9 % Control	–	–	–	–	O=C(O)CCCCCN1C(=O)c2ccccc2C1=O [6-N--phthalimidocaproic acid]	51 ± 12%	81 ± 6%	67 ± 3%	–	–	–
83 ± 2 % Control	–	–	–	–	CC(=O)OCCCCN1C(=O)c2ccccc2C1=O [N--phthalimidobutan-1-ol acetate]	88 ± 7%	93 ± 9%	66 ± 5%	–	–	–
85 ± 3 % Control	–	–	–	–	CC(=O)CCCCCN1C(=O)c2ccccc2C1=O [1-N--phthalimidoheptan-6-one]	88 ± 5%	71 ± 6%	75 ± 12%	–	–	–
82 ± 5 % Control	–	–	–	–	CCN1C(=O)c2ccccc2C1=O [N--ethylphthalimide]	87 ± 5%	83 ± 4%	76 ± 2%	–	–	–
